Experimental data as given in patent publication US12240844B2 (Voronoi, Inc., priority 2019, dated 2025).

Assays:
human DYRK1A and Tau = assay: Tau phosphorylation inhibition, ClariCELL Kinase Cell-Based Assay (Carnabio)
Experimental: Tau phosphorylation inhibitory efficacy was measured using the ClariCELL™ Kinase Cell-Based Assay service of Carnabio, located in the United States. The compounds are exposed to human embryonic kidney ([…]) cells transiently expressing human DYRK1A and Tau, and then the cells are lysed to release cellular proteins. At this time, the released Tau is captured on a plate, and the degree of phosphorylation is quantified by ELISA using an antibody specific for Tau phosphorylation.

MDA-MB-231 cell line = assay: MDA-MB-231 cancer cell proliferation inhibition (Cell Titer-Glo); format: cell-based; details: Homo sapiens, MDA-MB-231 triple-negative breast cancer cell line, 72 hours
In short: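 GI50 comes from CellTiter-Glo luminescence, read 10 min after reagent addition at RT, following 72 h compound treatment. Eleven concentrations were used (⅓ steps, highest 10 μM final) on 2000 cells/well. MDA-MB-231 and MDA-MB-468 were grown in DMEM, SHP-77 in RPMI.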

SHP-77 = SHP-77 cancer cell proliferation inhibition (Cell Titer-Glo); format: cell-based; details: Homo sapiens, SHP77, SHP-77 small cell lung cancer cell line, 72 hours
Experimental: In order to evaluate the cancer cell proliferation inhibitory activity of the compounds of the present invention, the following experiments were performed.
To evaluate the cancer cell proliferation inhibitory effect, the cell growth rate analysis was performed while culturing MDA-MB-231 cell line (Korean Cell Line Bank #30026) and MDA-MB-468 cell line as the triple-negative breast cancer cell line, and SHP-77 (ATCC #CRL-2195) as the small cell lung cancer cell line in DMEM (HyClone #SH30243) and RPMI medium (HyClone #SH3027.01), respectively. More specifically, the cell lines were each plated at 2000 cells/100 μl in each well of a 96-well flat-bottom plate (coming #3903), and then the example compounds having eleven concentrations which were diluted by ⅓ so that the final concentrations were 10.000000, 3.333333, 1.111111, 0.370370, 0.123457, 0.041152, 0.013717, 0.004572, 0.001524, 0.000508 and 0.000169 μM were treated. After 72 hours, 100 μl of Cell Titer-Glo (Promega G7573) was treated, incubated at RT for 10 minutes, and then luminescence was measured using a microplate reader. The measured luminescence degree was calculated as GI50 using Prism (version 8.2 GraphPad) software.
In the table below, the following designations were used for the evaluation of proliferation inhibitory activity.

LRRK2 = LRRK2 (Homo sapiens, UniProt Q5S007); assay: LRRK2 enzyme inhibition, ADP-Glo kinase assay; format: biochemical; parameters: purchased Invitrogen PR8604B
In short: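 Purified human LRRK2 (25 ng) in 40 mM Tris-HCl pH7.4, 20 mM MgCl2, 0.5 mg/ml BSA, 50 μM DTT with 10 μM ATP and substrate ([…]), 2 h at 25° C. Final compound 50 to 0.000001024 μM, 12-point dilution. ADP-Glo luminescence vs solvent control; IC50 (nM).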

[1] = molecular target: T1, human GST-DYRK1A (full length) (Homo sapiens, UniProt Q13627); assay: GST-DYRK1A enzyme inhibition, ADP-Glo kinase assay; format: biochemical; details: read-out: DYRK1 IC50
T1 construct: purified human GST-DYRK1A (full length, Thermo scientifics) enzyme; GST; purchased Thermo scientifics
In short: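 Full-length human GST-DYRK1A (10 ng) incubated with 10 uM ATP and specific substrate for 1 h at 25° C in 40 mM Tris-HCl pH 7.4, 20 mM MgCl2, 0.5 mg/mL BSA, 50 uM DTT. ADP formation read by ADP-Glo luminescence; IC50 (nM) versus solvent control, triplicate.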

human GST-CLK1 (129-end) = molecular target: T2, human GST-CLK1 (129-end) (Homo sapiens, UniProt P49759); assay: GST-CLK1 enzyme inhibition, ADP-Glo kinase assay; format: biochemical; details: ATP 10 uM
T2 construct: purified human GST-CLK1 (129-end, Signalchem) enzyme; GST; purchased Signalchem
In short: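 GST-CLK1 (129-end, 3 ng) reacted with 10 uM ATP and substrate in 40 mM Tris-HCl pH 7.4, 20 mM MgCl2, 0.5 mg/mL BSA, 50 uM DTT, 1 h at 25° C. ADP-Glo luminescence normalised to solvent control; IC50 from triplicate data.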

LRRK2 (G2019S) = LRRK2 (G2019S) (Homo sapiens, UniProt Q5S007, G2019S); assay: LRRK2 G2019S enzyme inhibition, ADP-Glo kinase assay; format: biochemical; parameters: purchased SignalChem L10-12GG
In short: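 Purified human LRRK2 G2019S (16 ng) with 25 μM ATP and 0.2 μg substrate, 2 h at 25° C in 40 mM Tris-HCl pH 7.4, 20 mM MgCl2, 0.5 mg/ml BSA, 50 μM DTT; compound at 12 final concentrations from 50 μM downward. ADP-Glo luminescence versus solvent control gave IC50 (nM).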

LRRK2 (G2019S), sequence (Q5S007 970-2527 G2019S limits assumed): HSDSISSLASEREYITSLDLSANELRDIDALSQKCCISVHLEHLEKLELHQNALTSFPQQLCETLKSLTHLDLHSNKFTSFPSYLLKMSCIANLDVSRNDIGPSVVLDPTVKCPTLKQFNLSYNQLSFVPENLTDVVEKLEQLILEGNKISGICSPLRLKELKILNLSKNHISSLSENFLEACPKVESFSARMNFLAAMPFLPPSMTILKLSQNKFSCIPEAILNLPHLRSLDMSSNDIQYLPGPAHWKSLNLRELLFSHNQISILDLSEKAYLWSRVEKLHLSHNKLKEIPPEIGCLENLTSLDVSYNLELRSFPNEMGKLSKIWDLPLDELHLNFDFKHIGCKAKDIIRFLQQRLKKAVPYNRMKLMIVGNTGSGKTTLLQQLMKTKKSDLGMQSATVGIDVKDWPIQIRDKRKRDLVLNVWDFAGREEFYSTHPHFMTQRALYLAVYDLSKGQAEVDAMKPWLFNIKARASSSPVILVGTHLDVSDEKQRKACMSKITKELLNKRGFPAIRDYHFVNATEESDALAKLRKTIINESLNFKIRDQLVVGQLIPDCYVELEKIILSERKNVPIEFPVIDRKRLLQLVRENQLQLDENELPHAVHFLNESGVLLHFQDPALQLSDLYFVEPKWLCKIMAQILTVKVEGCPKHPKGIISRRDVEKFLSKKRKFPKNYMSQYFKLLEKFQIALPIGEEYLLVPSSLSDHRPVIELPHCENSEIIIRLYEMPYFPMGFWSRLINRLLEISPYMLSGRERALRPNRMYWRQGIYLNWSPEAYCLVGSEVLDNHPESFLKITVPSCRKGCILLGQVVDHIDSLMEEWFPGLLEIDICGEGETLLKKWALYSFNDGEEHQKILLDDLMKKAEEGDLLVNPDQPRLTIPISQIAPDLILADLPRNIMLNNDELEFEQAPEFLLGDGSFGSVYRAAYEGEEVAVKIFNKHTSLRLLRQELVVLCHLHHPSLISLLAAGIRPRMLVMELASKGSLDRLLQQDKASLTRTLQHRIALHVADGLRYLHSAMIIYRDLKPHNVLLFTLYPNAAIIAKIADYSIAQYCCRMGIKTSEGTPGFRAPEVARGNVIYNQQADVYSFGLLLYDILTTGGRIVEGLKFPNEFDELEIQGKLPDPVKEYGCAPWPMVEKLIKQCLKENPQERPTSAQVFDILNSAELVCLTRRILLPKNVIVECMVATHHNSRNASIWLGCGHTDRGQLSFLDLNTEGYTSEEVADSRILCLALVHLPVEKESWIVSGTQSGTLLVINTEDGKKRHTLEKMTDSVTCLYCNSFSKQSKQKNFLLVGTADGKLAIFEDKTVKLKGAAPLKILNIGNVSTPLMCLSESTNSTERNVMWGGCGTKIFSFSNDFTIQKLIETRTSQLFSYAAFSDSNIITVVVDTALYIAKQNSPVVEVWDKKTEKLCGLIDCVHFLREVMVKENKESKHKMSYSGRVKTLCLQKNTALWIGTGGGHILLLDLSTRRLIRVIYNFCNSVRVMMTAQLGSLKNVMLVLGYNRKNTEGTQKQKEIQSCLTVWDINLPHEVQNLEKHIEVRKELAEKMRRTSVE
LRRK2, sequence (Q5S007 970-2527 limits assumed): as the sequence (Q5S007 970-2527 G2019S limits assumed) above, with S1050G counted along it
T2 sequence (P49759 129-484 limits assumed): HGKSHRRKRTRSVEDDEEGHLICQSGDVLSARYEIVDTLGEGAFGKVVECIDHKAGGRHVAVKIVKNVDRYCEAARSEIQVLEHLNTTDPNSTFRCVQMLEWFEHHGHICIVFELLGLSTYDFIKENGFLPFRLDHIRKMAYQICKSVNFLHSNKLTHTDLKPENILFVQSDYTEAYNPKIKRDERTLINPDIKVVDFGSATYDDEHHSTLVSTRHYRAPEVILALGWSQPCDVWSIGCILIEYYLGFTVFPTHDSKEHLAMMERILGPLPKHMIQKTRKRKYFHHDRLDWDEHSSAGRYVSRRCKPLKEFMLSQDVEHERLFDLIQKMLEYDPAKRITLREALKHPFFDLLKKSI

SMILES	inhibition at 0.25 µM (human DYRK1A and Tau) [%]	inhibition at 0.5 µM (human DYRK1A and Tau) [%]	inhibition at 1 µM (human DYRK1A and Tau) [%]	GI50 (MDA-MB-231 cell line) [nM]	GI50 (SHP-77) [nM]	IC50 (LRRK2) [nM]	IC50 [1] [nM]	IC50 (human GST-CLK1 (129-end)) [nM]	IC50 (LRRK2 (G2019S)) [nM]
CCCNc1cc(Nc2ccc(S(=O)(=O)N3CCC(N4CCOCC4)CC3)cc2OC)nc2[nH]cc(C(F)(F)F)c12 [Example 40, N^6-(2-methoxy-4-((4-morpholinopiperidin-1-yl)sulfonyl)phenyl)-N^4-propyl-3-(trifluoromethyl)-1H-pyrrolo[2,3-b]pyridine-4,6-diamine]	9.2	15.2	38.7	301 to 1000	301 to 1000	301 to 1000	< 100	301 to 1000	–
CCCNc1cc(Nc2ccc(S(=O)(=O)N3CCC(N4CCOCC4)CC3)cc2OC)nc2[nH]cc(C#N)c12 [Example 139, 6-((2-methoxy-4-((4-morpholinopiperidin-1-yl)sulfonyl)phenyl)amino)-4-(propylamino)-1H-pyrrolo[2,3-b]pyridine-3-carbonitrile]	–	–	–	< 50	< 50	< 100	301 to 1000	301 to 1000	< 100
CCNc1cc(Nc2ccc(S(=O)(=O)N3CCOCC3)cc2OC)nc2[nH]cc(C(F)(F)F)c12 [Example 179, N^4-ethyl-N^6-(2-methoxy-4-(morpholinosulfonyl)phenyl)-3-(trifluoromethyl)-1H-pyrrolo[2,3-b]pyridine-4,6-diamine]	–	–	–	301 to 1000	301 to 1000	301 to 1000	301 to 1000	301 to 1000	301 to 1000
COc1cc(S(=O)(=O)N2CCOCC2)ccc1Nc1cc(NC2CCCCC2)c2c(C(F)(F)F)c[nH]c2n1 [Example 181, N^4-cyclohexyl-N^6-(2-methoxy-4-(morpholinosulfonyl)phenyl)-3-(trifluoromethyl)-1H-pyrrolo[2,3-b]pyridine-4,6-diamine]	–	–	–	301 to 1000	301 to 1000	301 to 1000	301 to 1000	301 to 1000	301 to 1000
CCNc1cc(Nc2ccc(S(=O)(=O)N3CCC(N4CCOCC4)CC3)cc2OC)nc2[nH]cc(C(F)(F)F)c12 [Example 185, N^4-ethyl-N^6-(2-methoxy-4-((4-morpholinopiperidin-1-yl)sulfonyl)phenyl)-3-(trifluoromethyl)-1H-pyrrolo[2,3-b]pyridine-4,6-diamine]	22.9	37.7	56.2	51 to 100	< 50	< 100	101 to 300	101 to 300	< 100
COc1cc(S(=O)(=O)N2CCOCC2)ccc1Nc1cc(NC2CC2)c2c(C(F)(F)F)c[nH]c2n1 [Example 186, N^4-cyclopropyl-N^6-(2-methoxy-4-(morpholinosulfonyl)phenyl)-3-(trifluoromethyl)-1H-pyrrolo[2,3-b]pyridine-4,6-diamine]	–	–	–	301 to 1000	301 to 1000	301 to 1000	301 to 1000	301 to 1000	301 to 1000
COc1cc(S(=O)(=O)N2CCC(N3CCOCC3)CC2)ccc1Nc1cc(NC2CC2)c2c(C(F)(F)F)c[nH]c2n1 [Example 188, N^4-cyclopropyl-N^6-(2-methoxy-4-((4-morpholinopiperidin-1-yl)sulfonyl)phenyl)-3-(trifluoromethyl)-1H-pyrrolo[2,3-b]pyridine-4,6-diamine 2,2,2-trifluoroacetate]	–	–	–	301 to 1000	101 to 300	< 100	301 to 1000	301 to 1000	101 to 300
COc1cc(S(=O)(=O)N2CCOCC2)ccc1Nc1cc(NCC(C)C)c2c(C(F)(F)F)c[nH]c2n1 [Example 189, N^4-isobutyl-N^6-(2-methoxy-4-(morpholinosulfonyl)phenyl)-3-(trifluoromethyl)-1H-pyrrolo[2,3-b]pyridine-4,6-diamine]	–	–	–	301 to 1000	301 to 1000	301 to 1000	301 to 1000	301 to 1000	301 to 1000
COc1cc(S(=O)(=O)N2CCC(N3CCOCC3)CC2)ccc1Nc1cc(NCC(C)C)c2c(C(F)(F)F)c[nH]c2n1 [Example 191, N^4-isobutyl-N^6-(2-methoxy-4-((4-morpholinopiperidin-1-yl)sulfonyl)phenyl)-3-(trifluoromethyl)-1H-pyrrolo[2,3-b]pyridine-4,6-diamine]	–	–	–	301 to 1000	301 to 1000	101 to 300	301 to 1000	301 to 1000	301 to 1000
COc1cc(S(=O)(=O)N2CCOCC2)ccc1Nc1cc(NCCS(C)(=O)=O)c2c(C(F)(F)F)c[nH]c2n1 [Example 192, N^6-(2-methoxy-4-(morpholinosulfonyl)phenyl)-N^4-(2-(methylsulfonyl)ethyl)-3-(trifluoromethyl)-1H-pyrrolo[2,3-b]pyridine-4,6-diamine]	–	–	–	301 to 1000	301 to 1000	101 to 300	< 100	301 to 1000	301 to 1000
COCCNc1cc(Nc2ccc(S(=O)(=O)N3CCOCC3)cc2OC)nc2[nH]cc(C(F)(F)F)c12 [Example 195, N^6-(2-methoxy-4-(morpholinosulfonyl)phenyl)-N^4-(2-methoxyethyl)-3-(trifluoromethyl)-1H-pyrrolo[2,3-b]pyridine-4,6-diamine]	–	–	–	301 to 1000	101 to 300	301 to 1000	301 to 1000	301 to 1000	301 to 1000
COCCNc1cc(Nc2ccc(S(=O)(=O)N3CCC(N4CCOCC4)CC3)cc2OC)nc2[nH]cc(C(F)(F)F)c12 [Example 197, N^6-(2-methoxy-4-((4-morpholinopiperidin-1-yl)sulfonyl)phenyl)-N^4-(2-methoxyethyl)-3-(trifluoromethyl)-1H-pyrrolo[2,3-b]pyridine-4,6-diamine]	–	–	–	301 to 1000	101 to 300	< 100	101 to 300	< 100	< 100
CCCNc1cc(Nc2ccc(S(=O)(=O)N3CCOCC3)cc2OC)nc2[nH]cc(C(F)(F)F)c12 [Example 199, N^6-(2-methoxy-4-(morpholinosulfonyl)phenyl)-N^4-propyl-3-(trifluoromethyl)-1H-pyrrolo[2,3-b]pyridine-4,6-diamine]	–	–	–	301 to 1000	301 to 1000	301 to 1000	301 to 1000	301 to 1000	301 to 1000
